Data as given in PMC2804440 (Neuron, 2009).

Assays:
LGC-55 [1] = molecular target: T1, LGC-55 (Caenorhabditis elegans, UniProt G5EEC1); assay: two-electrode voltage clamp, Xenopus oocytes; format: cell-based
T1 sequence (G5EEC1 17-538): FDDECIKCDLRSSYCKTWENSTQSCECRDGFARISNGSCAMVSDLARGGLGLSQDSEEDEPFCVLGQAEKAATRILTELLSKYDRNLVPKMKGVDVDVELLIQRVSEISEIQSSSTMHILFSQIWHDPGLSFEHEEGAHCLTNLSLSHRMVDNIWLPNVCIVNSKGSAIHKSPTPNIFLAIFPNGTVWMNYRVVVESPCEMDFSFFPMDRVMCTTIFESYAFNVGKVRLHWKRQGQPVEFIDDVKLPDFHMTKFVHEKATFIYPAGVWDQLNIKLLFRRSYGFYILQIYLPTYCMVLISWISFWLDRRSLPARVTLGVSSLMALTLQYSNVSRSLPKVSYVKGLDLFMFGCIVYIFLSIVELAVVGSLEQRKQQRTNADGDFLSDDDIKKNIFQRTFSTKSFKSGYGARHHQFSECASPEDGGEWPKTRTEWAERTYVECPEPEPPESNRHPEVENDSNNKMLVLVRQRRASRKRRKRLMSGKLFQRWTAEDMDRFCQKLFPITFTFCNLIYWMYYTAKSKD

LGC-55 [2] = molecular target: T1, LGC-55; assay: two-electrode voltage clamp, Xenopus oocytes; format: cell-based; details: weak agonist; ND96, -60 mV, 10 s application, 22-24 °C

SMILES | EC50 (LGC-55 [1]) | small inward currents at millimolar concentrations (LGC-55 [2])
NCCc1ccc(O)c(O)c1 [dopamine] | 158.8 ± 1.1 µM | –
NCCc1c[nH]c2ccc(O)cc12 [serotonin] | – | serotonin only elicited small LGC-55-dependent inward currents at millimolar concentrations
NCCc1ccc(O)cc1 [tyramine] | 12.1 ± 1.2 µM | –
NC[C@H](O)c1ccc(O)cc1 [octopamine] | 215.2 ± 1.1 µM | –
